# In patent US20180339963A1, “ANTICONVULSANT CARBAMATE DERIVATIVES” (Yissum Research Development Company of the Hebrew …, priority 2017, published 2018):
# Where two headings read alike, the source gives them in different places. Marks after values point to notes of the source that are not given here.
# Legend:
# hCA II = biological target: T1, hCA II (Homo sapiens, UniProt P00918); assay: Stopped flow CO2 hydrase assay, hCA II; type: biochemical; details: mean from 3 assays, read-out: K1, hCA II
# T1 construct: made in house
# Experimental: (§1) An Applied Photophysics stopped-flow instrument has been used for assaying the CA catalysed CO2 hydration activity. Phenol red (at a concentration of 0.2 mM) has been used as indicator, working at the absorbance maximum of 557 nm, with 20 mM Hepes (pH 7.5) as buffer, and 20 mM Na2SO4 (for maintaining constant the ionic strength), following the initial rates of the CA-catalyzed CO2 hydration reaction for a period of 10-100 s. The CO2 concentrations ranged from 1.7 to 17 mM for the determination of the kinetic parameters and inhibition constants. […] The uncatalyzed rates were determined in the same manner and subtracted from the total observed rates. Stock solutions of inhibitor (0.1 mM) were prepared in distilled-deionized water and dilutions up to 0.01 nM were done thereafter with the assay buffer. […] The inhibition constants were obtained by non-linear least-squares methods using PRISM 3 and the Cheng-Prusoff equation, as reported earlier and represent the mean from at least three different determinations. All CA isofoms were recombinant ones obtained in-house.
# [1] = system: maximal electroshock seizure (MES); assay: Maximal electroshock seizure (MES) test in rats; details: Rattus norvegicus, po, read-out: MES-ED50, rats, p.o.
# [2] = system: pentylenetetrazol-induced seizure (scMet); assay: Subcutaneous metrazol seizure test (scMet) in mice; details: Mus musculus, ip, read-out: scMet-ED50
# [3] = system: pentylenetetrazol-induced seizure (scMet); assay: Subcutaneous metrazol seizure test (scMet) in rats; details: rats, p.o.
# [4] = system: maximal electroshock seizure (MES); assay: Maximal electroshock seizure (MES) test in mice; details: for responders at 30 mg/kg / responders at 100 mg/kg / responders at 300 mg/kg: read-out: MES, number of mice protected/number of mice tested
# hCA I = biological target: T2, hCA I (Homo sapiens, UniProt P00915); assay: Stopped flow CO2 hydrase assay, hCA I; type: biochemical; details: mean from 3 assays, read-out: K1, hCAI
# T2 construct: made in house
# T2 sequence (P00915 whole entry): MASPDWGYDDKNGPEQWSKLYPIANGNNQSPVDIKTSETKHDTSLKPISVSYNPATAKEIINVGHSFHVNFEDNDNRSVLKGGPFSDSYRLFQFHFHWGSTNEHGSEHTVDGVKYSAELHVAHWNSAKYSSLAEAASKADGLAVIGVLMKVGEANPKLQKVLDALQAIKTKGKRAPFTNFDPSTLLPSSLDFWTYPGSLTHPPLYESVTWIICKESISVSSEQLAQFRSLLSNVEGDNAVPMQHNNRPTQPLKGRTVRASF
# Experimental: as §1
# hCA VII = biological target: T3, hCA VII (Homo sapiens, UniProt P43166); assay: Stopped flow CO2 hydrase assay, hCA VII; type: biochemical; details: mean from 3 assays, read-out: K1, hCA VII
# T3 construct: made in house
# T3 sequence (P43166 whole entry): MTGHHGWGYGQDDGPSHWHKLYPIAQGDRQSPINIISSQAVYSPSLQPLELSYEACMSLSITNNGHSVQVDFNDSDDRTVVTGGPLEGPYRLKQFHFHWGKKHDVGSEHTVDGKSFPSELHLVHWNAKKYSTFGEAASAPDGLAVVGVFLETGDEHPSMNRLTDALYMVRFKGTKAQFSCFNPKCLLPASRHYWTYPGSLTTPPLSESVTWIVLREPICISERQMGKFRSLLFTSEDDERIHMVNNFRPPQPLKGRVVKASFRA
# Experimental: as §1
# hCA IV = biological target: T4, hCA IV (Homo sapiens, UniProt P22748); assay: Stopped flow CO2 hydrase assay, hCA IV; type: biochemical; details: mean from 3 assays, read-out: K1, hCA IV
# T4 construct: made in house
# T4 sequence (P22748 19-284): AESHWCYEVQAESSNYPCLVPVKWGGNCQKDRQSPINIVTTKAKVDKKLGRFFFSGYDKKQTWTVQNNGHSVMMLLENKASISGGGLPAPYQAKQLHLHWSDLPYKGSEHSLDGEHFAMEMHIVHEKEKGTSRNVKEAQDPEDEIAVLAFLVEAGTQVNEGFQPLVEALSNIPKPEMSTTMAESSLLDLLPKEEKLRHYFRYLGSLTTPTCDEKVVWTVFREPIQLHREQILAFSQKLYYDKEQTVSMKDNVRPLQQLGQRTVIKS
# Experimental: as §1
# 6 Hz psychomotor seizure = 6 Hz psychomotor seizure test in mice; details: for responders at 30 mg/kg / responders at 100 mg/kg / responders at 300 mg/kg: read-out: 6 Hz, number of mice protected/number of mice tested
# SWV mice = assay: Teratogenicity in the SWV mouse model; type: in vivo; details: for No. of fetuses with NTDs / No. of implants / No. of live fetuses / No. of resorptions / Fetal weight mean ± SD: day 8.5 of gestation; for Fetal weight mean ± SD: in g (unit assumed); for No. of live fetuses, figure in parentheses / No. of resorptions, figure in parentheses: share of implants; for No. of fetuses with NTDs, figure in parentheses: share of live fetuses
# Experimental: The teratogenic properties of the newly designed compounds (1-10) were evaluated in the highly inbred SWV mice strain known for its high susceptibility to VPA-induced neural tube defects (NTDs). Two month old nulligravid females, were mated overnight with males and examined for the presence of vaginal plugs the following morning, and the onset of gestation was considered to be 10 p.m. of the previous night, the midpoint of the dark cycle. At day 8.5 of gestation, each dam received a single i.p. injection of the test compounds in an equimolar dose of 0.9 or 1.8 mmol/kg and the control dams were injected with vehicle (25% water solution of Cremophore EL, Fluka Biochemica Germany). The volume of injection was 10 μL/g of body weight. […] At gestation day […], the dams were euthanized by carbon dioxide asphyxiation followed by cervical dislocation. After the opening the uterus, the location of all viable fetuses and resorption sites were recorded, and the fetuses were examined for the presence of exencephaly or other gross congenital abnormalities. The teratogenicity data (implantations, resorptions and NTDs) were evaluated for significant differences between the control and treated groups by analyzing the contingency table with Fisher's exact test. Statistical analysis was conducted using GraphPad InStat (version 3.06; GraphPad Software, San Diego, Calif., USA), and the results of all tests were considered to be statistically significant when the p-value was less than 0.05
# in vivo = details: male, CF no. 1 albino, mouse, ip
# mice = assay: Neurotoxicity (minimal motor impairment, rotarod) in mice; details: mice i.p.
structure (smiles),measurement,setting,value
"CCCC(COC(=O)Nc1ccc(S(N)(=O)=O)cc1)C(C)CC (stereo not drawn) [Compound 1, 3-methyl-2-propylpentyl (4-sulfamoylphenyl)carbamate]",Ki,hCA II,5.7 nM
same,ED50,[1],36 mg/kg
same,ED50,[2],> 300 mg/kg
same,scMet ED50,[3],inactive
same,responders at 30 mg/kg,"[4]; Mus musculus, ip, 0.5 h",0%
same,responders at 100 mg/kg,"[4]; Mus musculus, ip, 0.5 h",0%
same,responders at 300 mg/kg,"[4]; Mus musculus, ip, 0.5 h",0%
same,responders at 30 mg/kg,"[4]; Mus musculus, ip, 2 h",0%
same,responders at 100 mg/kg,"[4]; Mus musculus, ip, 2 h",75%
same,responders at 300 mg/kg,"[4]; Mus musculus, ip, 2 h",100%
same,ED50,"[4]; Mus musculus, ip, read-out: MES-ED50, mice, i.p.",136 mg/kg
same,MES-ED50,"[4]; mice, i.p.",236 mg/kg
same,Ki,hCA I,89 nM
same,melting point,,151 to 152 °C
same,Ki,hCA VII,865 nM
same,Ki,hCA IV,> 10000 nM
same,responders at 30 mg/kg,"6 Hz psychomotor seizure; Mus musculus, ip, 0.5 h",25%
same,responders at 100 mg/kg,"6 Hz psychomotor seizure; Mus musculus, ip, 0.5 h",25%
same,responders at 300 mg/kg,"6 Hz psychomotor seizure; Mus musculus, ip, 0.5 h",0%
same,responders at 30 mg/kg,"6 Hz psychomotor seizure; Mus musculus, ip, 2 h",0%
same,responders at 100 mg/kg,"6 Hz psychomotor seizure; Mus musculus, ip, 2 h",25%
same,responders at 300 mg/kg,"6 Hz psychomotor seizure; Mus musculus, ip, 2 h",75%
same,ED50,"6 Hz psychomotor seizure; Mus musculus, ip, read-out: 6 Hz-ED50, mice, i.p., 32 mA",75 mg/kg
same,6 Hz-ED50,"6 Hz psychomotor seizure; mice, i.p., 32 mA",74 mg/kg
same,induction of neural tube defects relative to anticonvulsant effective dose (in words),SWV mice,induced neural tube defects only at doses markedly exceeding their effective dose
same,No. of fetuses with NTDs,SWV mice; single i.p. 0.9 mmol/kg,1
same,No. of implants,SWV mice; single i.p. 0.9 mmol/kg,126
same,No. of live fetuses,SWV mice; single i.p. 0.9 mmol/kg,94
same,No. of resorptions,SWV mice; single i.p. 0.9 mmol/kg,32
same,Fetal weight mean ± SD,SWV mice; single i.p. 0.9 mmol/kg,0.88 ± 0.03
same,"No. of live fetuses, figure in parentheses",SWV mice; single i.p. 0.9 mmol/kg,74.6%
same,"No. of resorptions, figure in parentheses",SWV mice; single i.p. 0.9 mmol/kg,25.4%
same,"No. of fetuses with NTDs, figure in parentheses",SWV mice; single i.p. 0.9 mmol/kg,(1.1)
same,No. of fetuses with NTDs,SWV mice; single i.p. 1.8 mmol/kg,7
same,No. of implants,SWV mice; single i.p. 1.8 mmol/kg,109
same,No. of live fetuses,SWV mice; single i.p. 1.8 mmol/kg,50
same,No. of resorptions,SWV mice; single i.p. 1.8 mmol/kg,59
same,Fetal weight mean ± SD,SWV mice; single i.p. 1.8 mmol/kg,0.88 ± 0.06
same,"No. of live fetuses, figure in parentheses",SWV mice; single i.p. 1.8 mmol/kg,45.9%
same,"No. of resorptions, figure in parentheses",SWV mice; single i.p. 1.8 mmol/kg,54.1%
same,"No. of fetuses with NTDs, figure in parentheses",SWV mice; single i.p. 1.8 mmol/kg,(14.0)*
same,TD50,in vivo,> 500 mg/kg
same,"Tox (motor impairment or sedation), number of animals affected/number of animals tested","mice; 30 mg/kg, 0.5 h",0/8
same,"Tox (motor impairment or sedation), number of animals affected/number of animals tested","mice; 30 mg/kg, 2.0 h",0/8
same,"Tox (motor impairment or sedation), number of animals affected/number of animals tested","mice; 100 mg/kg, 0.5 h",0/8
same,"Tox (motor impairment or sedation), number of animals affected/number of animals tested","mice; 100 mg/kg, 2.0 h",0/8
same,"Tox (motor impairment or sedation), number of animals affected/number of animals tested","mice; 300 mg/kg, 0.5 h",0/8
same,"Tox (motor impairment or sedation), number of animals affected/number of animals tested","mice; 300 mg/kg, 2.0 h",0/8
